In PMC7763995 (Molecules, 2020):

Tests used:
mouse brain homogenate [1] = assay: TBARS assay, spontaneous lipid peroxidation in mouse brain homogenate; conditions: read-out: Inhibition of Spontaneous Lipid Peroxidation in Mice Brain Homogenate, TBARS Assay, IC50
Protocol: (§1) The work was carried out in accordance with the EU Directive 2010/63/EU. Hybrid BDF1 mice (about 6 months old) were sacrificed by decapitation. Each brain was rapidly excised, frozen in liquid nitrogen, and stored at −80°C until use. The brains were thawed and homogenized using a Wisd WiseTis HG-15D homogenizer for 2 min in a buffer (0.01 M PBS, pH 7.4 or 0.1 M Tris-HCl, pH 7.4). Protein concentrations were determined by the Lowry method.
The procedure was performed in accordance with the method of Ohkawa et al. with minor modifications. Briefly, mouse brain homogenate (protein concentration 1 mg/mL) in PBS (0.1 M, pH 7.4) was incubated for 30 min at 37°C with tested conjugates, and the reaction was terminated by addition of 0.4 mL of 17% (w/v) trichloroacetic acid (Sigma-Aldrich). Following centrifugation for 20 min at 1300× g, 0.5 mL of 0.8% (w/v) of TBA (Sigma-Aldrich) was added to 1 mL of supernatant, heated for 30 min at 95°C and then cooled to RT. The optical density of the TBARS, which corresponds to the produced MDA, was measured at 532 nm against a blank using an Agilent Cary 60 UV-Vis spectrophotometer (Agilent, Santa Clara, CA, USA). The MDA concentration was calculated using an extinction coefficient of 1.56 × 10^5 M^−1cm^−1. Trolox and BHT were used as reference antioxidants. Compounds were dissolved in DMSO (Sigma-Aldrich) and tested in a concentration range 0.01–100 μM. All compounds were examined at least in triplicate.

mouse brain homogenate [2] = assay: Luminol chemiluminescence assay in mouse brain homogenate (TBHP-initiated); conditions: compound concentration 20 µM; mice brain homogenate
Protocol: as §1
Luminol-dependent chemiluminescence produced by mouse brain homogenates was measured using a 1250 Luminometer (LKB Wallac, Turku, Finland) according to the assay by Di Meo et al. with minor modifications. The reaction mixture consisted of mouse brain homogenate (protein concentration 0.1 mg/mL) in 0.1 M Tris-HCl (Sigma-Aldrich), pH 7.4, luminol (Sigma-Aldrich) (0.05 mM), TBHP (Sigma-Aldrich) (0.073 M) and tested compounds at a concentration of 20 μM. This was placed in a light-proof luminometer chamber and the background reading was recorded. All measurements were carried out at 37°C. The gain control was set to give a reading of 10 mV using a built-in standard. The free radical content in mouse brain homogenate was evaluated by the change in the light sum (the area under the kinetic curve of luminescence intensity for the entire luminescence time). All compounds were examined at least in triplicate. The effects of tested compounds were measured as the percentage decrease in the light sum relative to the control (a sample with no compound added).

For `CC(C)(C)c1cc(C=NCCNc2c3c(nc4ccccc24)CCCCC3)cc(C(C)(C)C)c1O` [Compound 7c, 2,6-Di-tert-butyl-4-{[2-(7,8,9,10-tetrahydro-6H-cyclohepta[b]quinolin-11-ylamino)-ethylimino]-methyl}-phenol], the IC50 (mouse brain homogenate [1]) was 10.4 ± 0.7 µM and the “Radical Scavenging Capacity in Luminol Chemiluminescence Assay, Luminescence Inhibition, %” value (mouse brain homogenate [2]) was 95.0 ± 0.4%.
